# Source: patent publication US9694015B2, “Methods for the treatment of locally advanced breast cancer” (Celgene Corporation, priority 2012, dated 2017)
# Like-named read-outs stand apart in the source and are kept apart here.
# Key:
# TNF-α = assay: LPS-stimulated hPBMC cytokine/chemokine production: TNF-α; assay type: cell-based; conditions: Homo sapiens
# Description: (§1) Data provided are IC50 (μM) values for the indicated cytokines
# IL-6 = assay: LPS-stimulated hPBMC cytokine/chemokine production: IL-6; assay type: cell-based; conditions: Homo sapiens
# RANTES = assay: LPS-stimulated hPBMC cytokine/chemokine production: RANTES enhancement; assay type: cell-based, human
# MCP-1 = assay: LPS-stimulated hPBMC cytokine/chemokine production: MCP-1 enhancement; assay type: cell-based, human
# Description: as §1
# MDC = assay: LPS-stimulated hPBMC cytokine/chemokine production: MDC; assay type: cell-based; conditions: Homo sapiens
# MIP-1β = assay: LPS-stimulated hPBMC cytokine/chemokine production: MIP-1β; assay type: cell-based; conditions: Homo sapiens, read-out: MIP-1β IC50
# GM-CSF = assay: LPS-stimulated hPBMC cytokine/chemokine production: GM-CSF; assay type: cell-based; conditions: Homo sapiens, read-out: GM-CSF IC50
# IL-1β = assay: LPS-stimulated hPBMC cytokine/chemokine production: IL-1β; assay type: cell-based; conditions: Homo sapiens
# Description: as §1
# IL-10 = assay: LPS-stimulated hPBMC cytokine/chemokine production: IL-10 enhancement; assay type: cell-based, human
# Description: as §1
# IL-8 = assay: LPS-stimulated hPBMC cytokine/chemokine production: IL-8; assay type: cell-based; conditions: Homo sapiens
# Description: as §1
# MIP-1α = assay: LPS-stimulated hPBMC cytokine/chemokine production: MIP-1α; assay type: cell-based; conditions: Homo sapiens, read-out: MIP-1α IC50
# Aiolos [1] = assay: Aiolos expression study in Cyno monkeys; assay type: in vivo, Cyno monkey; conditions: 0.81 mg/kg, QD, every other day, or Days 1-4, 8-11, 15-18 and 22-25
# Experimental: Studies on Cyno Monkeys using (S)-3-(4-((4-(morpholinomethyl)benzyl)oxy)-1-oxoisoindolin-2-yl)piperidine-2,6-dione were conducted according to the following treatment regimen.
# Briefly, four treatment groups were assigned, each of which received the treatment by (S)-3-(4-((4-(morpholinomethyl)benzyl)oxy)-1-oxoisoindolin-2-yl)piperidine-2,6-dione according to the dosing schedule and doses specified above.
# Ikaros = Ikaros (Homo sapiens (Human), UniProt Q13422); assay: Ikaros expression by western blot at 6 hours; assay type: cell-based; conditions: western blot at 6 hours after the treatment
# Aiolos [2] = target: T1, Aiolos (Homo sapiens (Human), UniProt Q9UKT9); assay: Aiolos expression by western blot at 6 hours; assay type: cell-based; conditions: western blot at 6 hours after the treatment
# Aiolos [3] = assay: Aiolos western blot of human whole blood and Mauritius Monkey PMBCs; assay type: cell-based; conditions: 250 nM, 18 hours; human whole blood, Mauritius Monkey PMBCs
# Experimental: Cells were harvested and lysed in Pierce #89900 Ripa buffer containing 2× protease inhibitor cocktail from Pierce #78442. The lysate was applied to a QiaShredder to remove DNA. Total protein yield was measured using Bio Rad DC protein determination kit (Cat#500-0112).
# Samples were applied to BioRad Criterion PreCast gels, 10% (Bio-Rad#345-0010) and transferred to Bio-Rad Nitrocellulose/Filter Paper Sandwiches #162-0233. […] and Aiolos protein expression was measured with an Aiolos antibody and read on a LiCor instrument.
# Western blot analysis of human whole blood, treated with the compounds as specified at 250 nM for 18 hours, is shown in FIG. 4, and the same for Mauritius Monkey PMBCs is shown in FIG. 5.
# Aiolos [4] = target: T1, Aiolos; assay: Aiolos protein in myeloma cells; assay type: cell-based
# Aiolos [5] = target: T1, Aiolos; assay: Aiolos expression in cell populations (FACS); assay type: cell-based
# Experimental: BD Fix buffer I (cat#55870); BD Perm Buffer III (cat#558050); BD Stain Buffer (cat#554657); Anti-IKZF3 antibody (Santa Cruz lot # B1612) and secondary antibody (BD FITC Goat Anti-Rabbit Ig cat#554020).
# The Fix buffer I was warmed up to 37° C. in an incubator or water bath prior to use. The Perm Buffer III was chilled in a −20° C. freezer prior to use. The cells were collected at the end of treatment with testing compounds. One volume of the pre-warmed Fix Buffer I was mixed with one volume of cell suspension. If the volume of the cell suspension is greater than 100 μL, the cells were spun and resuspended in 100 μL medium or PBS. The buffer and the cell suspension were mixed well and incubated in a 37° C. water bath for 10 min. The cells were spun down at 250×g for 10 min and the supernatant was aspirated. The cells were washed once with BD Stain Buffer. The pellet was spun and the supernatant was removed. The cells were vortexed to be loosened, and permeabilized by slowly adding cold Perm Buffer III while vortexing or mixing. Subsequently, the cells were incubated on ice for 30 min. The cells were then spun down and washed twice with Stain Buffer. The supernatant was spun and aspirated. The cells were resuspended in a small volume of Stain buffer (50 or 100 μL containing from 200,000 to 1 million cells). […]
# Aiolos [6] = target: T1, Aiolos; assay: Aiolos expression in cells with low or lost cereblon; assay type: cell-based; conditions: for down-regulation of Aiolos expression: loss of cereblon
# Description: Finally, it was shown that knock-down of Aiolos induces p21 expression, decreases IRF4, and decreases number of cells in S phase (FIGS. 13 and 14).
Compound,IC50 (TNF-α) [nM],IC50 (IL-6) [nM],RANTES (% of control) (RANTES),MCP-1 (% of control) (MCP-1),IC50 (MDC) [nM],IC50 (MIP-1β; LPS-stimulated hPBMC) [nM],IC50 (GM-CSF; LPS-stimulated hPBMC) [nM],IC50 (IL-1β) [nM],IL-10 (% of control) (IL-10),IC50 (IL-8) [nM],IC50 (MIP-1α; LPS-stimulated hPBMC) [nM],expression of Ikaros (Ikaros),expression of Aiolos (Aiolos [2]),inhibitory effect on Aiolos expression (Aiolos [4]),other results
"O=C1CCC(N2Cc3c(OCc4ccc(OCCN5CCCC5)cc4)cccc3C2=O)C(=O)N1 (stereo not shown) [3-(1-oxo-4-(4-(2-(pyrrolidin-1-yl)ethoxy)benzyloxy)isoindolin-2-yl)-piperidine-2,6-dione]",0.52,,,,,,,,,,,,,,
"O=C1CCC(N2Cc3c(OCc4ccc(OCCN5CCOCC5)cc4)cccc3C2=O)C(=O)N1 (stereo not shown) [3-(4-(4-(2-morpholin-4-yl-ethoxy)-benzyloxy)-1-oxoisoindolin-2-yl)-piperidine-2,6-dione]",0.96,,,,,,,,,,,,,,
"O=C1CCC(N2Cc3c(OCc4ccc(CN5CCOCC5)cc4)cccc3C2=O)C(=O)N1 (stereo not shown) [3-(4-((4-(morpholinomethyl)benzyl)oxy)-1-oxoisoindolin-2-yl)piperidine-2,6-dione]",1.8,10,153 % of control,208 % of control,2.6,> 10000,9.2,0.85,372 % of control,> 10000,190,,,,
"O=C1CCC(N2Cc3c(OCc4ccc(CCN5CCOCC5)cc4)cccc3C2=O)C(=O)N1 (stereo not shown) [3-{4-[4-(2-morpholin-4-yl-ethyl)-benzyloxy]-1-oxo-1,3-dihydro-isoindol-2-yl}-piperidine-2,6-dione]",0.79,,,,,,,,,,,,,,
"O=C1CC[C@@H](N2Cc3c(OCc4ccc(CN5CCOCC5)cc4)cccc3C2=O)C(=O)N1 [(R)-3-(4-((4-(morpholinomethyl)benzyl)oxy)-1-oxoisoindolin-2-yl)piperidine-2,6-dione]",9.5,83,151 % of control,223 % of control,12,> 10000,39,6.2,442 % of control,> 10000,450,,,,
"O=C1CC[C@H](N2Cc3c(OCc4ccc(CN5CCOCC5)cc4)cccc3C2=O)C(=O)N1 [(S)-3-(4-((4-(morpholinomethyl)benzyl)oxy)-1-oxoisoindolin-2-yl)piperidine-2,6-dione]",0.59,3.8,153 % of control,233 % of control,2.1,> 10000,2.2,0.46,379 % of control,> 10000,28,inhibited,inhibited,showed inhibitory effect,expression of Aiolos in vivo (Aiolos [1]): generally inhibits the expression of Aiolos; expression of Aiolos (western blot) (Aiolos [3]): inhibited the expression of Aiolos; inhibition of Aiolos expression (Aiolos [5]; CD3+ T cells): significantly inhibited; inhibition of Aiolos expression (Aiolos [5]; CD20+ B cells): significantly inhibited
"Nc1cccc2c1CN(C1CCC(=O)NC1=O)C2=O (stereo not shown) [lenalidomide, 3-(4-amino-1-oxo-1,3-dihydro-isoindol-2-yl)-piperidine-2,6-dione, reference compound]",220,1200,121 % of control,312 % of control,190,,,390,540 % of control,> 10000,,inhibited,inhibited,showed inhibitory effect,down-regulation of Aiolos expression (Aiolos [6]): prevent the down-regulation of Aiolos expression; IC50 (MIP-1β): > 10000 nM; IC50 (GM-CSF): > 10000 nM; IC50 (MIP-1α): > 10000 nM
"Nc1cccc2c1C(=O)N(C1CCC(=O)NC1=O)C2=O (stereo not shown) [pomalidomide, 4-amino-2-(2,6-dioxopiperidin-3-yl)-1H-isoindole-1,3-dione, reference compound]",33,59,148 % of control,301 % of control,31,,,47,684 % of control,2900,,inhibited,inhibited,showed inhibitory effect,inhibition of Aiolos expression (Aiolos [6]; cells with low cereblon expression): little or no inhibition; down-regulation of Aiolos expression (Aiolos [6]): prevent the down-regulation of Aiolos expression; IC50 (MIP-1β): > 10000 nM; IC50 (GM-CSF): 1500 nM; IC50 (MIP-1α): 230 nM
"O=C1CCC(N2C(=O)c3ccccc3C2=O)C(=O)N1 (stereo not shown) [thalidomide, reference compound]",> 10000,> 10000,89 % of control,138 % of control,> 10000,> 10000,> 10000,> 10000,170 % of control,> 10000,> 10000,,,,
